Data taken from patent US12162918B2, “Periostin compounds for the treatment of haematological complications” (Chemotherapeutisches Forschungsinstitut Georg-Speyer-Haus, priority 2018, dated 2024).
Entries after “also recorded” stand apart in the source; their conditions may differ.

How the values were obtained:
distal femora = experiment: Bone histomorphometry of distal femora; type: in vivo, mice
Excerpt: The femora were isolated and first fixed in 4% paraformaldehyde at 4C overnight and then in 70% ethanol for an additional 5 days. Fixed bones were dehydrated in graded ethanol, then embedded in methyl methacrylate without demineralization. Undecalcified 5 μm thick longitudinal sections were obtained using a microtome (RM2255, Leica Biosystem, IL, USA). The sections were stained with Goldner Trichrome and at least two consecutive sections per specimen were examined for measurements of cellular parameters. A standard histomorphometric analysis of the femur methaphysis was performed using the Osteomeasure analysis system (Osteometrics Inc, Decatur, GA, USA). Measurements were performed 200 μm below the distal growth plate. The observer was blinded to the experimental group at the time of measurement. The cellular parameters were calculated and expressed according to the standardized nomenclature (Dempster et al., 2013).

murine stroma cells = experiment: Differentiation, gene expression and apoptosis of stroma and calvaria cells in presence of warfarin; type: cell-based
Description: Concentrations of drugs for in vitro use were 2 μM for warfarin, 2 μg/ml for periostin, 5 μM for the AKT inhibitor MK-2206 (Selleck Chemicals, Houston, TX) and cilengitide (Selleck Chemicals, Houston, TX, Cat. No. #S7077) was used at 0.05 μM. Phosphate buffered saline served as the vehicle control.
Bones from mice were crushed and plated and hematopoietic cells were removed the following day. As described (Mukherjee et al., 2008), after reaching confluence the stroma cells were cultured in α-MEM medium containing 10 mM β-glycerolphosphate, 10 nM dexamethasone and 50 μg/ml ascorbic acid for differentiation into osteoblastic cells (Mukherjee et al., 2008) or 500 nM insulin and 100 nM dexamethasone for differentiation into adipocytes. Differentiation was tested after 14-20 days by staining for von Kossa in the case of osteoblastic cells and Oil Red O in the case of adipocytes following standard staining protocols. Osteoclasts were purified from bone marrow macrophages, following standard protocols. Briefly, bone marrow cells were isolated from the femora and tibiae of 6-8 week old C57/B16 animals and cultured overnight at 37 C in α-MEM medium containing 10% fetal bovine serum and 1% antibiotic/antimycotic. The following day non-adherent cells were collected and separated by centrifugation on 50% Ficoll-Paque. Bone marrow-derived macrophages were seeded at 20,000 cells/well and cultured for 3 days in the presence of macrophage colony-stimulating factor (M-CSF) (50 ng/ml). On day 4 cells were also treated with receptor activator of nuclear factor kappa-B ligand (RANKL) (50 ng/ml) for an additional 4-5 days prior to tartrate-resistant acid phosphatase (TRAP) staining. Cells were treated with vehicle or warfarin (2 μM) for the entire culture period. […]
Quantitative PCR was performed using standard protocols.

[1] = tested on: Lin− hematopoietic cells on stroma cells; experiment: Cobblestone-formation and coculture assay of Lin− cells on stroma cells; type: cell-based, mice
Description: In the co-culture and cobblestone assays 20,000 Lin− cells were plated on stroma cells, which had been grown and expanded from vehicle- or warfarin-treated mice in medium (α-MEM medium supplemented with 20% fetal bovine serum, 1% penicillin/streptomycin, 1% L-Glutamine) containing vehicle or warfarin (2 μM). Conditioned medium was harvested from stroma from 5 mice grown in the above medium containing vehicle or warfarin for 7 days. Consequently, 100,000 Lin− cells were grown for 2-3 days in the conditioned medium and analyzed for cell counts by flow cytometry. Where indicated, the conditioned medium was concentrated using Microsep Advance Centrifugal Devices 30K Omega (Pall Life Sciences, Portsmouth, UK).
For all coculture assays hematopoietic and stroma cells were derived from the same mouse strain (C57/B16). Stroma cells were used after a maximum of two passages and when they were 70-80% confluent. Stroma cells were derived by crushing bones from mice, plating them in α-MEM medium containing 20% fetal calf serum, penicillin/strptomycin and by removing non-adherent hematopoietic cells the following day, as described (Mukherjee et al., 2008).

LKS and LKS SLAM cells = experiment: G-CSF-mediated mobilization; type: in vivo; conditions: warfarin-treated mice
Description: In the mobilization experiments vehicle- or warfarin-treated C57/B16 mice were treated with 200 μg/kg G-CSF daily for 4 days, sacrificed on day 5 and peripheral blood analyzed for LKS and LKS SLAM cells by flow cytometry.

CC(=O)CC(c1ccccc1)c1c(O)c2ccccc2oc1=O (stereo not shown) [warfarin]
ratio of bone volume/tissue volume (BV/TV) (distal femora; P<0.001): decreased | number of osteoblasts (N.Ob/B.Pm) (distal femora; P=0.0001): significantly increased | osteoblast surface (Ob.S/BS) (distal femora; P=0.0008): significantly increased | osteoclast surface (Oc.S/BS) (distal femora; P=0.01): significantly increased | osteoid volume (OV/BV) (distal femora; P=0.046): significantly increased | cancellous bone mass (distal femora; distal femora, warfarin-treated vs control mice): dramatic reduction; also recorded: significant reduction | osteoclast differentiation or number (N.Oc/B.Pm) (distal femora; mouse, in vivo): absence of changes | trabecular number and thickness (distal femora; mouse, in vivo): reduced | trabecular separation (distal femora; mouse, in vivo): increased | apoptosis of stroma cells in vitro (murine stroma cells; P=0.05): modest, but significant increase | differentiation of murine stroma cells to adipocytes and osteoblasts (murine stroma cells; in presence of warfarin): significantly compromised | relative expression of osteoblastic genes (Runx2, Alpl, Col1a1, Osx, Spp1, Bglap and others) (murine stroma cells; primary calvaria cells, warfarin vs vehicle): significantly reduced | annexin V+ dead hematopoietic cells in coculture with stroma cells ([1]; in the presence of warfarin vs vehicle, P=0.04): modest increase | number of cobblestone-forming areas ([1]; untreated Lin− cells on previously warfarin-treated stroma, P=0.03): significantly decreased | G-CSF-mediated mobilization of LKS SLAM cells into peripheral blood (LKS and LKS SLAM cells; P=0.026): impaired | G-CSF-mediated mobilization of LKS cells into peripheral blood (LKS and LKS SLAM cells; P=0.042): impaired
